Results taken from patent publication US9802993B2, “Method for producing a cell for protein production by treating a cell overexpressing a taurine transporter with methotrexate” (Chugai Seiyaku Kabushiki Kaisha, priority 2007, dated 2017).

Experiments:
Format in all cases: cell-based, Chinese hamster
[1] = test system: GC33/DXB11s, GC33/DXB11s/TauT and GC33/DXB11s/TauT/CSAD strains; test: Sensitivity to 200 nM MTX (survival rate) of anti-glypican-3 antibody-producing strains; details: MTX raised from 20 nM to 200 nM; CHO-S-SFM II/CD-CHO mixed medium; FIG. 2
Source text: Then, pPur-CSAD expression plasmids (see Referential Example 4 described later, FIG. 6) were co-introduced into the above GC33/DXB11s/TauT strain to prepare a GC33/DXB11s/TauT/CSAD strain in which CSAD was strongly expressed. Subsequently, sensitivity to MTX of the GC33/DXB11s/TauT strain and the GC33/DXB11 s/TauT/C SAD strain was compared with that of the parent GC33/DXB11s strain. Because the parent strain was a strain capable of producing an antibody in which an antibody gene had been amplified to 20 copies or more (relative to the value before MTX treatment) by treatment with 20 nM MTX, the above strains could stably proliferate in the CHO-S-SFM II/CD-CHO mixed medium to which 20 nM MTX had been added.

DXB 11 s/TauT host cells = test: Sensitivity to MTX (survival rate) of host cells strongly expressing TauT in medium without HT; details: 10 nM or 20 nM MTX added; CHO-S-SFM II/CD-CHO mixed medium without HT; FIG. 1
Source text: (§1) Into CHO DXB 11 s cells serving as host cells, pHyg-TauT expression plasmids (see Referential Example 2 described later, FIG. 5) were introduced by electroporation to prepare DXB 11 s/TauT host cells in which TauT was strongly expressed. Subsequently, sensitivity to MTX was compared between the DXB 11 s/TauT host cells and the DXB 11 s host cells which were the parent strain.

[2] = test system: GC33/DXB11s/TauT/CSAD strain; test: Treatment with a high concentration of MTX: proliferation and antibody production ability; details: for amount of antibody production / number of viable cells: recovered, then cultured in 20 nM MTX, 15 mL tubes, initial 1×10^5 cells/mL, FIG. 4
Procedure: The GC33/DXB11s/TauT/CSAD strain, which was most MTX-resistant in Example 1, was subcultured in rotation culture for 28 days using the CHO-S-SFM II/CD-CHO mixed medium to which a high concentration of MTX (100 nM or 200 nM) had been added under the condition of 2×10^5 cells/mL in an initial stage, with the medium replaced every three to five days. […] By 14 days after that, i.e., on the 42nd day, the cells had begun to proliferate. The above two strains in which survival rates were recovered by subculture in the diluted medium (cells treated with 100 nM or 200 nM MTX) were cultured in 15 mL tubes using the CHO-S-SFM II/CD-CHO mixed medium in the presence of 20 nM MTX under the condition of 1×10^5 cells/mL in an initial stage. […] Also, the amount of antibody produced by the TauT/CSAD strain before treatment with a high concentration of MTX was 86 mg/L even when the number of viable cells grew to 19.6×10^5 cells/mL; thus, it was shown that the TauT/CSAD strain before treatment with a high concentration of MTX had the lowest production ability.

CHO DXB 11 s host cells = test: Sensitivity to MTX (survival rate) of parent host cells in medium without HT; details: 10 nM or 20 nM MTX added; CHO-S-SFM II/CD-CHO mixed medium without HT; FIG. 1
Source text: as §1

Compound: CN(Cc1cnc2nc(N)nc(N)c2n1)c1ccc(C(=O)N[C@@H](CCC(=O)O)C(=O)O)cc1 [MTX, methotrexate]
- survival rate [1]: the survival rates in all of the above strains decreased
- survival rate (DXB 11 s/TauT host cells): reduction in the survival rate was suppressed at a level equivalent to the survival rate observed in the absence of MTX
- cell proliferation ([2]; 100 nM or 200 nM MTX, subculture in rotation culture for 28 days, FIG. 3): no cell proliferation was observed
- amount of antibody production ([2]; strain treated with 100 nM MTX): 162 mg/L
- number of viable cells ([2]; strain treated with 100 nM MTX): 22.3×10^5 cells/mL
- amount of antibody production ([2]; strain treated with 200 nM MTX): 144 mg/L
- number of viable cells ([2]; strain treated with 200 nM MTX): 18.0×10^5 cells/mL
- survival rate (CHO DXB 11 s host cells): a tendency of accelerated decrease in the survival rate was observed
